Patent publication US20070270418A1, “Inhibitors of P38 and Methods of Using the Same” (priority 2003, published 2007)
Like-named read-outs stand apart in the source and are kept apart here.

Tests used:
p38α = molecular target: T1, p38α (Homo sapiens, UniProt Q16539); assay: p38 MAP Kinase assay, ATF2 phosphorylation (ELISA); assay type: biochemical; conditions: 40 μM ATP
T1 construct: p38 MAP Kinases are recombinant human full-length proteins with an amino-terminal GST fusion; GST (N); purchased Upstate (Charlottesville, Va.); host or cells: E. coli
How it was run: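 ATF2 Thr69 phosphorylation was quantified by ELISA (HRP/TMB, 450 nm) after EDTA termination. Reactions: 6 ng GST-fused full-length human p38α, 15 min compound pre-incubation at room temperature, then 30 min at 37° C with 40 μM ATP and 1.25 μM GST-ATF2 (aa 19-96), pH 7.5 HEPES buffer.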

[1] = system: TNFα release from THP-1 cells; assay: TNFα release from LPS-stimulated THP-1 cells; assay type: cell-based; conditions: LPS 10 μg/ml, 18 hours, read-out: TNFα (THP-1) IC50
How it was run: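 THP-1 cells (10^6 cells/ml on resuspension) preincubated with compound 30 min at 37°C, 5% CO2, final DMSO ≤0.5%, then stimulated with 10 μg/ml LPS for 18 h (TNFα). Supernatants collected for TNFα analysis.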

T1 sequence (Q16539 whole entry, the tested form may be a part): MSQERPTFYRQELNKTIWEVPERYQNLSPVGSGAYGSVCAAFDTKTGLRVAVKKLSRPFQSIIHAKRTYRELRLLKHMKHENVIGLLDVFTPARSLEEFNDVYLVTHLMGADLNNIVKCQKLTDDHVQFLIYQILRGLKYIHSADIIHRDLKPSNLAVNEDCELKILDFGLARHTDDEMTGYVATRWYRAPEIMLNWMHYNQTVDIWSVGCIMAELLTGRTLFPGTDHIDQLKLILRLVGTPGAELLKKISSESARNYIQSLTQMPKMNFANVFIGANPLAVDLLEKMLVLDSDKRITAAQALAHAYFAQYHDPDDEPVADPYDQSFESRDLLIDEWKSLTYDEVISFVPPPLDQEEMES

IC50 (p38α) [nM] | IC50 ([1]; Homo sapiens, THP-1, 18 h) [nM] | melting point [°C] | IC50 [1] [nM] | Structure (SMILES)
966 | 4860 | 197 to 198 | – | CS(=O)(=O)c1nccc(-c2c(-c3ccc(F)cc3)nc3sccn23)n1 [CXL, 6-(4-fluorophenyl)-5-(2-methanesulfonyl-pyrimidin-4-yl)-imidazo[2,1-b]thiazole]
174 | 13.2 | – | – | CC[C@H](C)[C@@H](CO)Nc1nccc(-c2c(-c3ccc(F)cc3)nc3occn23)n1 [LXIV]
83.3 | 11.4 | – | – | O[C@H]1CCCC[C@@H]1Nc1nccc(-c2c(-c3ccc(F)cc3)nc3occn23)n1 [LXIX]
79.1 | 140 | – | – | C[C@@H](Nc1nccc(-c2c(-c3ccc(F)cc3)nc3occn23)n1)[C@@H](O)c1ccccc1 [LXVIII]
33.4 | 177 | – | – | O=C1CCCN1CCCNc1nccc(-c2c(-c3ccc(F)cc3)nc3occn23)n1 [LXVII]
75.9 | 193 | – | – | Fc1ccc(-c2nc3occn3c2-c2ccnc(NCCN3CCOCC3)n2)cc1 [LXVI]
86.6 | 26.3 | – | – | CCCC[C@@H](CO)Nc1nccc(-c2c(-c3ccc(F)cc3)nc3occn23)n1 [LXV]
234 | 96.6 | – | – | Fc1ccc(-c2nc3occn3c2-c2ccnc(NCc3ccncc3)n2)cc1 [LXXIII]
72.8 | 519 | – | – | COc1ccc(CNc2nccc(-c3c(-c4ccc(F)cc4)nc4occn34)n2)cc1OC [LXXIV]
342 | 58.4 | – | – | COc1cccc(CNc2nccc(-c3c(-c4ccc(F)cc4)nc4occn34)n2)c1OC [LXXIX]
370 | 318 | – | – | OCCN(CCO)CCNc1nccc(-c2c(-c3ccc(F)cc3)nc3occn23)n1 [LXXVIII]
6.72 | 41.2 | – | – | C[C@@H](Nc1nccc(-c2c(-c3ccc(F)cc3)nc3occn23)n1)[C@@H](O)c1ccc(O)cc1 [LXXVI]
5.09 | 26.6 | – | – | Oc1cccc(C(O)CNc2nccc(-c3c(-c4ccc(F)cc4)nc4occn34)n2)c1 (centres unmarked) [LXXV]
185 | 346 | – | – | OC[C@@H](Nc1nccc(-c2c(-c3ccc(F)cc3)nc3occn23)n1)[C@H](O)c1ccccc1 [LXXXIII]
184 | 50.5 | – | – | CC(CO)(CO)Nc1nccc(-c2c(-c3ccc(F)cc3)nc3occn23)n1 [LXXXII]
253 | 599 | – | – | NCCNc1nccc(-c2c(-c3ccc(F)cc3)nc3occn23)n1 [LXXXIX]
1230 | 1230 | – | – | CS(=O)(=O)c1ccc(CNc2nccc(-c3c(-c4ccc(F)cc4)nc4occn34)n2)cc1 [LXXXI]
39.9 | 87 | – | – | Fc1ccc(-c2nc3occn3c2-c2ccnc(NCC3CCCNC3)n2)cc1 (centres unmarked) [LXXXVIII]
227 | 150 | – | – | OCC(CO)(CO)Nc1nccc(-c2c(-c3ccc(F)cc3)nc3occn23)n1 [LXXXVI]
66.3 | 39.3 | – | – | Fc1ccc(-c2nc3occn3c2-c2ccnc(NCc3cccnc3)n2)cc1 [LXXXV]
82.5 | 88.4 | – | – | Oc1ccc(C(O)CNc2nccc(-c3c(-c4ccc(F)cc4)nc4occn34)n2)cc1 (centres unmarked) [LXXX]
3.33 | 12.2 | – | – | CCOC(=O)N1CCC(Nc2nccc(-c3c(-c4ccc(F)cc4)nc4occn34)n2)CC1 [LXX]
20.5 | 69.7 | – | – | CCCCC(CO)Nc1nccc(-c2c(-c3ccc(F)cc3)nc3occn23)n1 (centres unmarked) [LX]

IC50 (p38α) [nM] | IC50 ([1]; Homo sapiens, THP-1, 18 h) [nM] | melting point [°C] | IC50 [1] [nM] | Structure (SMILES)
86.6 | 125 | – | – | CC(C)C[C@H](CO)Nc1nccc(-c2c(-c3ccc(F)cc3)nc3occn23)n1 [L]
1130 | – | 144 to 145 | – | CSc1nccc(-c2c(-c3ccc(F)cc3)nc3occn23)n1 [X, 6-(4-fluorophenyl)-5-[2-(methylsulfanyl)pyrimidin-4-yl]imidazo[2,1-b][1,3]oxazole]
120 | 457 | – | – | OCCN(CCO)c1nccc(-c2c(-c3ccc(F)cc3)nc3occn23)n1 [XCIII]
90.9 | 394 | – | – | Fc1ccc(CNc2nccc(-c3c(-c4ccc(F)cc4)nc4occn34)n2)cc1 [XCIV]
71.1 | 854 | – | – | Fc1ccc(-c2nc3occn3c2-c2ccnc(N3CCOCC3)n2)cc1 [XCIX]
49.9 | 188 | – | – | NCCCNc1nccc(-c2c(-c3ccc(F)cc3)nc3occn23)n1 [XCI]
134 | 951 | – | – | OC1CCN(c2nccc(-c3c(-c4ccc(F)cc4)nc4occn34)n2)CC1 [XCVIII]
1.41 | 12.1 | – | – | COCCCNc1nccc(-c2c(-c3ccc(F)cc3)nc3occn23)n1 [XCVII]
3.42 | 18 | – | – | CCNc1nccc(-c2c(-c3ccc(F)cc3)nc3occn23)n1 [XCV]
16.7 | 11.8 | – | – | CC(C)[C@@H](CO)Nc1nccc(-c2c(-c3ccc(F)cc3)nc3occn23)n1 [XII]
41.6 | 338 | – | – | OCCNc1nccc(-c2c(-c3ccc(F)cc3)nc3occn23)n1 [XIV]
100 | 1140 | – | – | N#CCCNc1nccc(-c2c(-c3ccc(F)cc3)nc3occn23)n1 [XIX]
1.56 | 13.5 | – | – | CCOCCCNc1nccc(-c2c(-c3ccc(F)cc3)nc3occn23)n1 [XLIII]
80.8 | 11.2 | – | – | Fc1ccc(-c2nc3occn3c2-c2ccnc(NC[C@@H]3CCCO3)n2)cc1 [XLII]
10.5 | 34.5 | – | – | CCSCCNc1nccc(-c2c(-c3ccc(F)cc3)nc3occn23)n1 [XLIV]
5.87 | 20 | – | – | Fc1ccc(-c2nc3occn3c2-c2ccnc(NCc3cccs3)n2)cc1 [XLIX]
1.75 | – | – | 49.2 | CC(CO)Nc1nccc(-c2c(-c3ccc(F)cc3)nc3occn23)n1 (centres unmarked) [XLI]
74 | 96.8 | – | – | Fc1ccc(-c2nc3occn3c2-c2ccnc(NCc3ccccn3)n2)cc1 [XLVIII]
31.4 | 13.7 | – | – | C[C@@H](CO)CCNc1nccc(-c2c(-c3ccc(F)cc3)nc3occn23)n1 [XLVII]
23.1 | 17.2 | – | – | OCCCCCNc1nccc(-c2c(-c3ccc(F)cc3)nc3occn23)n1 [XLVI]
11.7 | 11.2 | – | – | Fc1ccc(-c2nc3occn3c2-c2ccnc(NC[C@H]3CCCO3)n2)cc1 [XLV]
79 | 93 | – | – | OCCOCCNc1nccc(-c2c(-c3ccc(F)cc3)nc3occn23)n1 [XL]
0.44 | 11.2 | – | – | Fc1ccc(-c2nc3occn3c2-c2ccnc(NC3CC3)n2)cc1 [XVIII]

IC50 (p38α) [nM] | IC50 ([1]; Homo sapiens, THP-1, 18 h) [nM] | melting point [°C] | IC50 [1] [nM] | Structure (SMILES)
15.7 | 15.9 | – | – | CCC(O)CNc1nccc(-c2c(-c3ccc(F)cc3)nc3occn23)n1 (centres unmarked) [XVII]
37.1 | – | – | 19.3 | CC(O)CNc1nccc(-c2c(-c3ccc(F)cc3)nc3occn23)n1 (centres unmarked) [XVI]
30.7 | 18.8 | – | – | CC(O)CNc1nccc(-c2c(-c3ccc(F)cc3)nc3occn23)n1 (centres unmarked) [XV]
11.9 | 9.08 | – | – | C=CCNc1nccc(-c2c(-c3ccc(F)cc3)nc3occn23)n1 [XXIII]
3.7 | 18.6 | – | – | CC[C@@H](CO)Nc1nccc(-c2c(-c3ccc(F)cc3)nc3occn23)n1 [XXII]
15 | 1.78 | – | – | Fc1ccc(-c2nc3occn3c2-c2ccnc(NC3CCC3)n2)cc1 [XXIV]
4.28 | 4.45 | – | – | Fc1ccc(-c2nc3occn3c2-c2ccnc(NCC3CC3)n2)cc1 [XXIX]
6.86 | 13.9 | – | – | C[C@H](O)CNc1nccc(-c2c(-c3ccc(F)cc3)nc3occn23)n1 [XXI]
3.47 | 15.3 | – | – | CCCNc1nccc(-c2c(-c3ccc(F)cc3)nc3occn23)n1 [XXVIII]
20.5 | 6.08 | – | – | CC[C@H](CO)Nc1nccc(-c2c(-c3ccc(F)cc3)nc3occn23)n1 [XXVII]
480 | 100 | – | – | CN(C)CCNc1nccc(-c2c(-c3ccc(F)cc3)nc3occn23)n1 [XXVI]
21.5 | 466 | – | – | OCCCNc1nccc(-c2c(-c3ccc(F)cc3)nc3occn23)n1 [XXV]
143 | 57 | – | – | OCC(O)CNc1nccc(-c2c(-c3ccc(F)cc3)nc3occn23)n1 (centres unmarked) [XXXIII]
19 | 4.89 | – | – | COC[C@H](C)Nc1nccc(-c2c(-c3ccc(F)cc3)nc3occn23)n1 [XXXII]
2.19 | 19.7 | – | – | CCCC(CO)Nc1nccc(-c2c(-c3ccc(F)cc3)nc3occn23)n1 (centres unmarked) [XXXIV]
1.6 | 10.3 | – | – | COCC(C)Nc1nccc(-c2c(-c3ccc(F)cc3)nc3occn23)n1 (centres unmarked) [XXXI]
343 | 168 | – | – | CN(C)CCCNc1nccc(-c2c(-c3ccc(F)cc3)nc3occn23)n1 [XXXVIII]
5.95 | 21.5 | – | – | Fc1ccc(-c2nc3occn3c2-c2ccnc(NCc3ccco3)n2)cc1 [XXXVII]
103 | 76.6 | – | – | Cc1ccc(CNc2nccc(-c3c(-c4ccc(F)cc4)nc4occn34)n2)o1 [XXXVI]
17.9 | 17.9 | – | – | CC(CO)CCNc1nccc(-c2c(-c3ccc(F)cc3)nc3occn23)n1 (centres unmarked) [XXXV]
34.8 | – | – | 12.3 | CC(CO)Nc1nccc(-c2c(-c3ccc(F)cc3)nc3occn23)n1 (centres unmarked) [XXX]
24.3 | 65 | – | – | COCCNc1nccc(-c2c(-c3ccc(F)cc3)nc3occn23)n1 [XX]
